Measured values: patent US8168669B2, “Therapeutic agent for inflammatory bowel disease and TNF-α production inhibitor” (Ajinomoto Co., Inc., priority 2005, dated 2012)

Key:
Format in all cases: in vivo, mouse
[1] = system: colitis in Scid mice injected with cells of IL-10 deficient Balb/c mice; test: Therapeutic effect on inflammatory bowel disease: colon weight in cell-transfer colitis mice fed experimental diet; parameters: Colon weight Mean: unit not given here; conditions: three weeks after cell transfer
Protocol: Balb/c background IL-10 deficient mice were established from C57BL/6 background IL-10 deficient mice by back-crossing for seventh generations. […] Spleen, mesenteric lymph nodes and sacral lymph nodes were collected from the IL-10 gene-deficient Balb/c mice (male) which had developed the colitis detected by observing the diarrhea symptoms. After preparing single cell suspensions, the cells at about 1×10^7 were injected intraperitoneally to Scid mice which were immunodeficiency mice (hereinafter the Scid mouse injected IP was referred to as an “experiment mouse”). Subsequently, a chow was changed to an experimental diet. At a time point three weeks after cell transfer, the mice were killed, the colon was collected, the intestinal contents were washed out, and its weight was measured. A percentage of inhibiting a weight gain of the colon was calculated by the following formula. Percentage of inhibiting a weight gain of colon=[1−(Colon weight in target group−Colon weight in cell transfer group)/(Colon weight in standard chow group−Colon weight in cell transfer group)]×100(%)
An amino acid mixture A is composed of the following amino acids (% by weight is represented in terms of free amino acid).

Reg3γ mRNA = test: Quantitative RT-PCR of colon Reg3γ mRNA; conditions: 5% in standard chow, colon after three weeks
Protocol: (§1) The experimental diet obtained by mixing the amino acids shown in Table 6 with the standard chow was given to the experiment mice, and after three weeks, the colon was removed. A colon sample was homogenized with 500 μL of Isogen (Nippon Gene). The homogenate mixed with 100 μL, of chloroform was centrifuged at 15,000 rpm at 4° C. and an aqueous layer was collected. An equivalent amount of 2-propanol was added thereto, which was then centrifuged at 15,000 rpm at 4° C. A resulting pellet was washed with 70% (v/v) ethanol, dried in air and dissolved in water treated with DEPC.
(§2) All reagents used were from Invitrogen. […]
(§3) A gene expression assay based on PCR was performed using SYBR Green PCR Master Mix (Applied Biosystems) and ABI PRISM 7700 System. SYBR Green PCR Master Mix comprises SYBR Green and heat resistant DNA polymerase, and detects fluorescence generated by specifically binding SYBR Green to a double strand DNA amplified by PCR using ABI PRISM 7700 System. Gene expression amounts of the samples can be compared by comparing the numbers of PCR cycles at which a significant fluorescence signal is detected for the first time. The cDNA corresponding to 10 ng of total RNA was used as a template of the quantitative PCR, and n=2 or more per sample of measurements were performed. […] The sequences of the primers used for the quantitative RT-PCR are as follows. […]

Groα mRNA = test: Quantitative RT-PCR of colon Groα mRNA; conditions: 5% in standard chow, colon after three weeks
Protocol: as §1, §2, §3

TNF-α mRNA = test: Inhibitory effect on TNF-α production: quantitative RT-PCR of colon TNF-α mRNA; conditions: colon after three weeks
Protocol: as §1
All reagents used were from Invitrogen. 0.5 μg Of total RNA and 0.5 μg of oligo (dT) were dissolved in 12 μL of DEPC-treated water, heated at 70° C. for 10 minutes, and cooled on ice for one minute. Subsequently, 4 μL of 5×1st strand buffer, 1 μL of 10 mM dNTP mix and 2 μL of 100 mM DTT were added thereto. The mixture was reacted at 42° C. for 5 minutes. 1 μL (200 U) of SuperScriptII was added, and the mixture was reacted at 42° C. for 50 minutes and 70° C. for 15 minutes.
A gene expression assay based on PCR was performed using SYBR Green PCR Master Mix (Applied Biosystems) and ABI PRISM 7700 System. SYBR Green PCR Master Mix comprises SYBR Green and heat resistant DNA polymerase, and detects fluorescence generated by specifically binding SYBR Green to a double strand DNA amplified by PCR using ABI PRISM 7700 System. Gene expression amounts of the samples can be compared by comparing the numbers of PCR cycles at which a significant fluorescence signal is detected for the first time. The cDNA corresponding to 10 ng of total RNA was used as a template of the quantitative PCR, and n=2 or more per sample of measurements were performed. A forward primer and a reverse primer at each 7.5 pmol of each gene were added to 7.5 μL of SYBR Green PCR Master Mix (Applied Biosystems), and the total volume was made to be 15 μL with water. The PCR was performed by 40 cycles of the reaction at 95° C. for 10 seconds, 60° C. for 30 seconds and 72° C. for 30 seconds after reacting at 95° C. for 10 minutes. The sequences of the primers used for the quantitative RT-PCR are as follows.
An inhibitory rate of TNF-α mRNA expression was calculated from the following formula. Inhibitory rate of TNF-α mRNA expression=[1−Relative amount of TNF-α mRNA expression in target group−Relative amount of TNF-α mRNA expression in cell transfer group)/(Relative amount of TNF-α mRNA expression in standard chow group−Relative amount of TNF-α mRNA expression in cell transfer group)]×100(%)

[2] = Mus musculus, po, 504 h, 5% in standard chow, read-out: Rate of inhibiting weight gain of colon (%)

Row | Structure (SMILES) | Colon weight Mean ([1]; 5% in standard chow) | inhibition in vivo at 5 % [1, 2] [%] | Inhibitory rate of TNF-α mRNA expression (%) (TNF-α mRNA; 5% in standard chow) | also measured
1 | NC(=O)CC[C@H](N)C(=O)O [Example 1, glutamine] | 530.5 | 22.5 |  | 
2 | NCCCC[C@H](N)C(=O)O [Example 2, lysine] | 392.8 | 48.5 |  | 
3 | N[C@@H](Cc1c[nH]cn1)C(=O)O [Example 3, histidine] | 429.0 | 37.8 | 54 | Inhibitory rate of Reg3γ mRNA Expression (%) (Reg3γ mRNA): 84%; Inhibitory rate of Groα mRNA Expression (%) (Groα mRNA): 70%
4 | N[C@@H](CS)C(=O)O [Example 4, cysteine] |  | 42.1 |  | 
5 | NCC(=O)O [Example 5, glycine] | 437.1 |  |  | Rate of inhibiting weight gain of colon (%) ([1]; 5% in standard chow): 37.4%
6 | N[C@@H](Cc1c[nH]c2ccccc12)C(=O)O [Example 6, tryptophan] |  | 92.7 | 49 | Colon weight Mean ([1]; 2% in standard chow): 425.6; inhibition in vivo at 2 % ([1]; Mus musculus, po, 504 h, 2% in standard chow, read-out: Rate of inhibiting weight gain of colon (%)): 41.9%; Inhibitory rate of TNF-α mRNA expression (%) (TNF-α mRNA; 2% in standard chow): 33%
7 | CSCC[C@H](N)C(=O)O [Example 7, methionine] | 307.7 | 73.1 |  | 
8 | N[C@@H](Cc1ccccc1)C(=O)O [Example 12, phenylalanine] | 392.8 | 48.5 | 84 | 
9 | C[C@@H](O)[C@H](N)C(=O)O [Example 13, threonine] | 468.2 | 28.8 |  | 
